Results from ChEMBL document CHEMBL1201862, “PubChem BioAssay data set” (2004).
Several values for one entry are separate records, joined by “and”; a condition that tells them apart may be missing. Equal values may be shown once. Activity calls are given as the source filed them.

Experiments:
Type in all cases: functional
CHO-K1 = assay: (§1) Counterscreen for antagonists of the orexin 1 receptor (OX1R; HCRTR1): Homogeneous time resolved fluorescence (HTRF)-based cell-based dose response assay to identify antagonists of the parental CHO-K1 cell line. [Related pubchem assays (depositor defined):AID434989, AID435008, AID463079, AID485270, AID492963, AID492964, AID492965, AID493232, AID504699, AID504701]; details: Cricetulus griseus
[1] = as §1, with “Fluorescence-based” for “Homogeneous time resolved fluorescence (HTRF)-based”, “cell-based high throughput” for “cell-based”, “CHO” for “CHO-K1”
Coagulation factor XII = target: T1, Coagulation factor XII (Homo sapiens, UniProt P00748);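 also: activated factor XIIa alpha cleaving a fluorogenic AMC peptide substrate; inhibitor potency from loss of enzyme activity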
T1 sequence (P00748 whole entry): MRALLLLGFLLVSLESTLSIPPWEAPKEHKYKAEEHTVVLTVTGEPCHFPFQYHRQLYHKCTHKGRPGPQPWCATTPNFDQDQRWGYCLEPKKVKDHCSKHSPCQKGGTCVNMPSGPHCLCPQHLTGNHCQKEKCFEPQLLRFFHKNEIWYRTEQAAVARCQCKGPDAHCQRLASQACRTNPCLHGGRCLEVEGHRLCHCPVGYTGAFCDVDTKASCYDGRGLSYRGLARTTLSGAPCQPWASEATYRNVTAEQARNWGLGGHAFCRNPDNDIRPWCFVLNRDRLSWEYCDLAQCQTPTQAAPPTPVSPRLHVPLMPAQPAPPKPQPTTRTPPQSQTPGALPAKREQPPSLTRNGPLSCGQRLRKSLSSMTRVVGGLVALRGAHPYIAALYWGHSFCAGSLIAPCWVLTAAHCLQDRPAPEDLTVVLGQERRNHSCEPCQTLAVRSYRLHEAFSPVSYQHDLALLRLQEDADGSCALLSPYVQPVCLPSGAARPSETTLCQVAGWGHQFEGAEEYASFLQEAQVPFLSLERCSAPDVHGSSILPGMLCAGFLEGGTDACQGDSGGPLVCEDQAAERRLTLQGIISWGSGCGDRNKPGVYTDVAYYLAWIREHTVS

[2] = target: T2, Orexin/Hypocretin receptor type 1 (Homo sapiens, UniProt O43613); assay: Homogeneous Time Resolved Fluorescence (HTRF)-based cell-based high throughput dose response assay for antagonists of the orexin 1 receptor (OX1R; HCRTR1). [Related pubchem assays (depositor defined):AID434989, AID435008, AID463079, AID485270, AID492963, AID492964, AID492965, AID493232, AID504717, AID504718]
T2 sequence (O43613 whole entry): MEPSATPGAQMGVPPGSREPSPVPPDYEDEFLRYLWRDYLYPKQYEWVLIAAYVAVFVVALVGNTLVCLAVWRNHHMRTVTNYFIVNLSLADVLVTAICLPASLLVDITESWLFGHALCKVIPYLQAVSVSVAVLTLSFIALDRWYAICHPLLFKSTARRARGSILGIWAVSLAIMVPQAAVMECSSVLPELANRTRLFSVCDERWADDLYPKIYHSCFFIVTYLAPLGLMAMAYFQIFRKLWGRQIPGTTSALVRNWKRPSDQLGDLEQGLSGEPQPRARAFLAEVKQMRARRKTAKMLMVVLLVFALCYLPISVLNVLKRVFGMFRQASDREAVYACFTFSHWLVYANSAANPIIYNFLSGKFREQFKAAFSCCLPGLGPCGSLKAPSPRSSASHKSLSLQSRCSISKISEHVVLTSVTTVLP

[3] = target: T2, Orexin/Hypocretin receptor type 1; assay: Fluorescence-based cell-based high throughput dose response assay for antagonists of the orexin 1 receptor (OX1R; HCRTR1). [Related pubchem assays (depositor defined):AID434989, AID435008, AID463079, AID485270, AID492963, AID492964, AID492965, AID493232, AID504717, AID504718]
Orexin receptor type 2 [4] = target: T3, Orexin receptor type 2 (Homo sapiens, UniProt O43614); assay: Counterscreen assay for antagonists of the orexin 1 receptor (OX1R; HCRTR1): Fluorescence-based cell-based dose response assay for antagonists of the orexin 2 receptor (OX2R; HCRTR2), run by assay provider.
T3 sequence (O43614 whole entry): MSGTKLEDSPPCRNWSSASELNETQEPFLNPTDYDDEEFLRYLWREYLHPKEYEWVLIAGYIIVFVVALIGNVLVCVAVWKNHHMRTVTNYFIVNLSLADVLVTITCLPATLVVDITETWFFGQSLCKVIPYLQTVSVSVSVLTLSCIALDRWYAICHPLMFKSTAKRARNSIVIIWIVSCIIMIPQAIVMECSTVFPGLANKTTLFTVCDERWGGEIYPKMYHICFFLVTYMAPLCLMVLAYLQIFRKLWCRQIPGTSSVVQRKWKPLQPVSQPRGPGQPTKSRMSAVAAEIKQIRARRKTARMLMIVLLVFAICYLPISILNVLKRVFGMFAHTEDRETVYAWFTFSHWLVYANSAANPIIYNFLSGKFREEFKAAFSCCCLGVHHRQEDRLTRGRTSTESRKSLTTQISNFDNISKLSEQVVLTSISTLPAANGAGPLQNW

Orexin receptor type 2 [5] = target: T3, Orexin receptor type 2; assay: Counterscreen assay for antagonists of the orexin 1 receptor (OX1R; HCRTR1): Homogeneous Time Resolved Fluorescence (HTRF)-based cell-based dose response assay for antagonists of the orexin 2 receptor (OX2R; HCRTR2), run by assay provider.
[6] = target: DNA dC->dU-editing enzyme APOBEC-3G (Homo sapiens, UniProt Q9HC16); assay: APOBEC3G deaminase inhibitors, SAR follow-up, biochemical, fluorescence, single-stranded DNA substrate (AID 602136); details: read-out: IC50_Mean
DNA dC->dU-editing enzyme APOBEC-3G, sequence (Q9HC16 whole entry): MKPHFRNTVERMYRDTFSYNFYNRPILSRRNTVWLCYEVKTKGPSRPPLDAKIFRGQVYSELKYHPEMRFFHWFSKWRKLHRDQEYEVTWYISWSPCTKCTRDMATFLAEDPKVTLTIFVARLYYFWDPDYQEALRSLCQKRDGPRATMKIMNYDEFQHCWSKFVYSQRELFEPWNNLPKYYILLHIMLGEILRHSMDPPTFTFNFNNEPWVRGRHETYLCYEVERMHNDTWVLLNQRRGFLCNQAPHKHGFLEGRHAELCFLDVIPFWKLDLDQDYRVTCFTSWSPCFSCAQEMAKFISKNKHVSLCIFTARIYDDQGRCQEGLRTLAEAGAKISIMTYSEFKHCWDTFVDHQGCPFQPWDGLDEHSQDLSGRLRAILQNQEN

[7] = target: DNA dC->dU-editing enzyme APOBEC-3A (Homo sapiens, UniProt P31941); assay: SAR analysis of small molecule inhibitors of APOBEC3A DNA Deaminase via a fluorescence-based single-stranded DNA deaminase assay.; details: read-out: IC50_Mean
DNA dC->dU-editing enzyme APOBEC-3A, sequence (P31941 whole entry): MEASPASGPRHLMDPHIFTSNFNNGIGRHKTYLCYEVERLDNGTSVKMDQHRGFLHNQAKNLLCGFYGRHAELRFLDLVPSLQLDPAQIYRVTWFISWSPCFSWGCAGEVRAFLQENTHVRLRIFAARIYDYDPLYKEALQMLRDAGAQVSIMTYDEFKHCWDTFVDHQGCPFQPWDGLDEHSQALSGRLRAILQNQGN

[8] = target: T4, ATP-dependent translocase ABCB1 (Homo sapiens, UniProt P08183); assay: ABCG2 efflux pump inhibitor potency, dose response, Ig-MXP3 cells, JC-1, flow cytometry, set 2 (AID 504566); details: read-out: EC50_MICROM_;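 also: flow cytometry median green fluorescence of retained JC-1 dye; potency of efflux pump inhibition measured as rising substrate retention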
T4 sequence (P08183 whole entry): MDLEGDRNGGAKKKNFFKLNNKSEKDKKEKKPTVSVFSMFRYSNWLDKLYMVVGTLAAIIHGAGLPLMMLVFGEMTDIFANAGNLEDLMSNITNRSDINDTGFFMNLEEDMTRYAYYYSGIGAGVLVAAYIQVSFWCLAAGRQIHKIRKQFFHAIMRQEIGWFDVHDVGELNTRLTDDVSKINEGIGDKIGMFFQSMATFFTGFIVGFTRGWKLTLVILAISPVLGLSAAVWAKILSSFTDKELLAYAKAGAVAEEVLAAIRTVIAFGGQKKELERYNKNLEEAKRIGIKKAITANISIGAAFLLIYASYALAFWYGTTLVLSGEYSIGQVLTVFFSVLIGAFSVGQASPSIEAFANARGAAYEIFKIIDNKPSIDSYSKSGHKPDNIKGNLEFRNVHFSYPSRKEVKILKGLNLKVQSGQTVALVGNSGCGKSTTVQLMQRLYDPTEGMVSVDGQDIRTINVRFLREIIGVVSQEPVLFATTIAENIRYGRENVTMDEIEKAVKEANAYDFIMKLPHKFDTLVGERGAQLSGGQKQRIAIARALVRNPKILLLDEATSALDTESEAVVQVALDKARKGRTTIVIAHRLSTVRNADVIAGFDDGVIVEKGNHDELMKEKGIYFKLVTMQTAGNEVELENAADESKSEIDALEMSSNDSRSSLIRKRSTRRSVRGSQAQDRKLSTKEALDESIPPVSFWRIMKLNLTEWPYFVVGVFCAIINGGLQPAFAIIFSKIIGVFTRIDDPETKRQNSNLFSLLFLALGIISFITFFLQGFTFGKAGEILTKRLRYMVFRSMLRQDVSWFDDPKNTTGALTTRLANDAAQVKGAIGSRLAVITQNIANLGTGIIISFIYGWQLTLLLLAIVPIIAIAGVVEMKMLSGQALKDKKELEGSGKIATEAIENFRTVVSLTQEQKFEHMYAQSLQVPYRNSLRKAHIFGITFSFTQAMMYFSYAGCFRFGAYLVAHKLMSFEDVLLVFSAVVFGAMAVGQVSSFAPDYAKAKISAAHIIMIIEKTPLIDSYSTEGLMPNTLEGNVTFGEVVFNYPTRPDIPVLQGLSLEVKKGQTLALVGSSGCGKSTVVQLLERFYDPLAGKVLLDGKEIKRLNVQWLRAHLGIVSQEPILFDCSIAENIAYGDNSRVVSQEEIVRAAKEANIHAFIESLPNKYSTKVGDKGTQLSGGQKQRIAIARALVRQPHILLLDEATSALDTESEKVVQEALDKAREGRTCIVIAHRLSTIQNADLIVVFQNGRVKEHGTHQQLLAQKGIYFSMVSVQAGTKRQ

[9] = target: T4, ATP-dependent translocase ABCB1; assay: ABCB1 efflux inhibitor potency, dose response, Jurkat-DNR cells, JC-1, flow cytometry, set 2 (AID 504569); details: read-out: EC50_MICROM_;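 also: potency of pump inhibitors that raise cellular JC-1 green fluorescence up to the nicardipine level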
[10] = target: Induced myeloid leukemia cell differentiation protein Mcl-1 (Homo sapiens, UniProt Q07820)
Induced myeloid leukemia cell differentiation protein Mcl-1, sequence (Q07820 whole entry): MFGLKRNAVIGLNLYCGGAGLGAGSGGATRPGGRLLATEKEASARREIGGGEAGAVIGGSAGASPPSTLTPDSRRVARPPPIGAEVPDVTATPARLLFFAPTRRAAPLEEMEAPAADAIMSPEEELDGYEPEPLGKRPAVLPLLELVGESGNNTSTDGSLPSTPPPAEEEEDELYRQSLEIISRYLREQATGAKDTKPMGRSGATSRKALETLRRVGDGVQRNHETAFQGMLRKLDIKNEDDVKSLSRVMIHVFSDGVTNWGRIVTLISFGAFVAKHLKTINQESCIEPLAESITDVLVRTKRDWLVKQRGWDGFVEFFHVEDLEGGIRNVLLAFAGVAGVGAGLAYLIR

[11] = target: T5, Low molecular weight phosphotyrosine protein phosphatase (Homo sapiens, UniProt P24666); details: read-out: IC50_Mean
T5 sequence (P24666 whole entry): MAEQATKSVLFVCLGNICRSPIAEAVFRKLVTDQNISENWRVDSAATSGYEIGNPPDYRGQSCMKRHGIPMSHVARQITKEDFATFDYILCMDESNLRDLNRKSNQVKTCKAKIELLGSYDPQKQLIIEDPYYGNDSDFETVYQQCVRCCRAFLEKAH

[12] = target: T5, Low molecular weight phosphotyrosine protein phosphatase; details: read-out: IC50_Mean; remark: listed apart in the source
[13] = target: T6, Tyrosine-protein phosphatase non-receptor type 22 (Homo sapiens, UniProt Q9Y2R2); assay: LYP phosphatase inhibition for selectivity, dose response, selectivity assay for LMPTP inhibitor project, biochemical, fluorescence, LYP catalytic domain (AID 652006); details: read-out: IC50_Mean
T6 sequence (Q9Y2R2 whole entry): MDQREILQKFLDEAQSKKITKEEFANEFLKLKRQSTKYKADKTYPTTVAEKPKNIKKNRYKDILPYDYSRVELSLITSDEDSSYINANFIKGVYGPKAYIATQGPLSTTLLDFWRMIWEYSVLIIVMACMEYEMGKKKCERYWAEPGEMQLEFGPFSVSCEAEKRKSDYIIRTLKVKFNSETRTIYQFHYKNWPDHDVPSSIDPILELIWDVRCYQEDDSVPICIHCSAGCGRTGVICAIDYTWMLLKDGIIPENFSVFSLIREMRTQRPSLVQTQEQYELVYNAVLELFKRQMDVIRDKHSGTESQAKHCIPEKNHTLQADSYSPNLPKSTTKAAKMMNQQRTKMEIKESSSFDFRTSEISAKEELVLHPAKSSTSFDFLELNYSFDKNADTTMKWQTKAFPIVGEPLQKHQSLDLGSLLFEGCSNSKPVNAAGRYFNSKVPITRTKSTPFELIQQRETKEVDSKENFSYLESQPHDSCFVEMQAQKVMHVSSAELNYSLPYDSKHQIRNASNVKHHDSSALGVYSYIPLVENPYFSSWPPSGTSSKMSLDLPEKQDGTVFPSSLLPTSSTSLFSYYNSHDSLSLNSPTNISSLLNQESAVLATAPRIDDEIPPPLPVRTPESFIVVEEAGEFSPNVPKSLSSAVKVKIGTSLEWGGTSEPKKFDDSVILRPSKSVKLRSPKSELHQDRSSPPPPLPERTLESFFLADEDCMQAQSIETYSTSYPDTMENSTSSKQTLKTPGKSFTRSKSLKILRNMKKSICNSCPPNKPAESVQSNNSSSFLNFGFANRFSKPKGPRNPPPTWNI

Cc1ccc(C(=O)N/C(=C/c2ccc(-c3cccc([N+](=O)[O-])c3)o2)C(=O)NC(C)(C)C)cc1
IC50 (CHO-K1): > 66.3 µM (inactive) | IC50 [1]: > 49.8 µM (inactive) | IC50 (Coagulation factor XII): > 50 µM (inactive) | IC50 [2]: 2.09 µM (active) | IC50 [3]: > 5.53 µM (active) | IC50 (Orexin receptor type 2 [4]): 27.9 µM (inactive) | IC50 (Orexin receptor type 2 [5]): 2.42 µM (active)

CCC(C)n1c(SCC(=O)NCc2ccco2)nnc1-c1cccc(S(=O)(=O)N2CCOCC2)c1 (stereo not given)
IC50 [6]: > 99 µM (inactive) | IC50 [7]: > 99 µM (inactive)

O=C(c1ccco1)N1CCN(c2cc(-c3ccccc3)nc3cc(-c4cccc(Cl)c4)nn23)CC1
EC50 [8]: 720 nM (active) and 2 µM (active) | EC50 [9]: 2.67 µM (active) and 3.69 µM (active)

COc1ccc(-c2ccc(/C=N/NC(=O)c3cccnc3)o2)c([N+](=O)[O-])c1
IC50 [10]: 3.42 µM (active) | IC50 [11]: > 80 µM (inactive) | IC50 [12]: 12 µM (active) | IC50 [13]: 38.5 µM (inactive)
